Data reported in patent publication US9250232B2, “Fluorescent probe” (THE UNIVERSITY OF TOKYO, priority 2012, dated 2016).
One block for each compound: values may come before it.

Experiments:
[1] = Optical characteristics (absorption and fluorescence maxima, quantum yield) in 0.1 M phosphate buffer with 1% DMSO; format: physicochemical; details: for λmax,fl (nm) / Φfl (fluorescence quantum yield): 0.1 M phosphate buffer (pH 9); for Φfl (fluorescence quantum yield): standard 2-Me TM (0.42); for λmax,abs (nm) pH 9: pH 9, 0.1 M phosphate buffer
Protocol: (§1) The measurement was performed in a 0.1 M phosphate buffer (pH 9) containing 1% dimethyl sulfoxide (DMSO). pKa was obtained from the absorbance meaured in a phosphate buffer (pH 9) by single-phase or two-phase curve fitting.

[2] = 2-Me TokyoMagenta in 0.1 M phosphate buffer (pH 9); compound of WO2012/099218; cited from earlier work
[3] = pKa from absorbance in phosphate buffer by single-phase or two-phase curve fitting; details: single value given
Protocol: as §1

[4] = Estimate of open-ring ratio by comparison with the absorption spectrum of TM-βGal; format: physicochemical; details: pH of physiological conditions; 10 μM in 0.1 M sodium phosphate buffer, 1.0% DMSO; versus TM-βGal
Protocol: In order to estimate the open-ring ratio of diCl-2-COOH TM-monoβGal, comparison with the absorption spectrum of TM-βGal was performed. […] The measurement was performed by using 10 μM diCl-2-COOH TM-monoβGal in a 0.1 M sodium phosphate buffer of various pH values containing 1.0% DMSO. The excitation wavelength was 450 nm for TMβGal (compound described in International Patent Publication WO2012/099218), or 460 nm for diCl-2-COOH TM-monoβGal.

HEK293 cells = assay: Imaging of β-galactosidase in live HEK293 cells (lacZ+ / lacZ−), intracellular uptake; format: cell-based; details: 10 μM, 37° C., 30 minutes, DMEM with 0.1% DMSO, confocal microscope
Protocol: For the HEK293 cells in which the lacZ gene encoding β-galactosidase was stably expressed (lacZ+), and the HEK293 cells into which the lacZ gene was not introduced (lacZ−) as a control, β-galactosidase in the cells was measured by using diCl-2-COOH TM-monoβGal or diCl-2-COOH TM-diβGal. The HEK293 cells (lacZ−) were incubated at 37° C. for 30 minutes in the Dulbecco's Modified Eagle's medium (DMEM) containing 0.1% DMSO together with 10 μM diCl-2-COOH TM-monoβGal or diCl-2-COOH TM-diβGal. […] The results are shown in FIG. 19 (diCl-2-COOH TM-monoβGal) and FIG. 20 (diCl-2COOHTM-diβGal).

[5] = Optical characteristics of diCl-2-COOH TM-monoβGal in 0.1 M phosphate buffer; format: physicochemical
Protocol: The quantum yield was calculated by using the quantum yield (0.85) of fluorescein in 0.1M aqueous sodium hydroxide as the standard.

Protocol for physchem: as §1

λmax,fl (nm) [1]: 607 nm
Φfl (fluorescence quantum yield) [1]: 0.48
λmax,abs (nm) pH 9 [1]: 591 nm
SMILES: C[Si]1(C)C2=C(Cl)C(=O)C=CC2=C(c2ccccc2C(=O)O)c2ccc(O)c(Cl)c21 [2-COOH DCTM, 4′,5′-Dichloro-2-COOH TokyoMagenta]

SMILES: C[Si]1(C)C2=CC(=O)C=CC2=C(c2ccccc2C(=O)O)c2ccc(O)cc21 [2-COOH TM]
λmax,fl (nm) [1]: 598 nm
Φfl (fluorescence quantum yield) [1]: 0.38
λmax,abs (nm) pH 9 [1]: 582 nm
pKa (physchem; pKa (first of two printed values)): 8.3
pKa (physchem; pKa (second of two printed values)): 7.6

SMILES: Cc1ccccc1C1=C2C=CC(=O)C=C2[Si](C)(C)c2cc(O)ccc21 [2-Me TM, 2-Me TokyoMagenta]
Φfl (quantum yield used as the standard) [2]: 0.42
λmax,fl (nm) [1]: 598 nm
λmax,abs (nm) pH 3 ([1]; pH 3, 0.1 M phosphate buffer): 472 nm
λmax,abs (nm) pH 9 [1]: 582 nm
pKa [3]: 6.8

Part having the ring-closed structure, which does not show absorption [4]: more than 95%
Absorption λmax [nm] [5]: 460 nm
Fluorescence λmax [nm] [5]: 555 nm
Extinction Coefficient ε [M^−1cm^−1] ([5]; pH 7.4): 1,200 (pH 7.4) M^−1cm^−1
Quantum yield Φfl ([5]; pH 7.4, standard fluorescein (0.85)): 0.09 (pH 7.4)
SMILES: C[Si]1(C)C2=C(Cl)C(=O)C=CC2=C(c2ccccc2C(=O)O)c2ccc(O[C@@H]3O[C@H](CO)[C@H](O)[C@H](O)[C@H]3O)c(Cl)c21 [diCl-2-COOH TM-monoβGal, 4′,5′-Dichloro-2-COOH TokyoMagenta mono-β-D-galactopyranoside]
Intracellular uptaking amount compared with diCl-2-COOH TM-diβGal (HEK293 cells): larger
